Laboratory results as given in patent publication US7799812B2, “Reverse isoxazoles” (Novartis AG, priority 2006, dated 2010).

Each compound was assayed against T1, human EDG-1 (S1P1) (Homo sapiens, UniProt P21453) (assay: S1P1 (EDG-1) GTP [γ-35S] binding assay, membranes from CHO cells).
T1 construct: c-myc (N); expressed in transfected cells
Assay type: biochemical
Description: A. In vitro: GPCR Activation Assay Measuring GTP [γ-^35S] Binding to Membranes Prepared from CHO Cells Expressing Human EDG Receptors
S1P1 (EDG-1) GTP [γ-^35S] binding assay: Homogenized membranes are prepared from CHO cell clones stably expressing a human EDG-1 N-terminal c-myc tag. Cells are grown in suspension in two 850 cm^2 roller bottles for three or fours days before harvesting. The cells are centrifuged down, washed once with cold PBS, and resuspended in ≦20 ml of Buffer A (20 mM HEPES, pH 7.4, 10 mM EDTA, EDTA-free complete protease inhibitor cocktail [1 tablet/25 ml]). The cell suspension is homogenized on ice, using a Polytron homogenizer at 30000 rpm at three intervals of 15 seconds each. The homogenate is first centrifuged at 2000 rpm on a tabletop low speed centrifuge for 10 minutes. The supernatant, after passing through a cell strainer, is then re-centrifuged at 50,000×g for 25 minutes at 4° C. The pellet is resuspended into buffer B (15% glycerol, 20 mM HEPES, pH 7.4, 0.1 mM EDTA, EDTA-free complete protease inhibitor cocktail [1 tablet/10 ml]). Protein concentration of the preparation is determined using the BCA Protein Assay kit (Pierce) using BSA as standard. The membranes are aliquoted and kept frozen at −80° C.
Solutions of test compounds ranging from 10 mM to 0.01 nM are prepared in DMSO. S1P is diluted in 4% BSA solution as positive controls. The desired amount of membrane preparation is diluted with ice-cold assay buffer (20 mM HEPES, pH 7.4, 100 mM NaCl, 10 mM MgCl2, 0.1% Fatty acid-free BSA, 5 μM GDP) and vortexed well. 2 μl or less of compound is distributed into each well of a round-bottom 96-well polystyrene assay plate, followed by addition of 100 μl of diluted membranes (3-10 μg/well) and kept on ice until the addition of hot GTPγS. [^35S]-GTPγS is diluted 1:1000 (v/v) with cold assay buffer and 100 μl is added into each well. The reaction is carried out at room temperature for 90 minutes before the membranes are harvested onto Perkin-Elmer Unifilter® GF/B-96 filter plate using a Packard Filtermate Harvester. […]

T1 sequence (P21453 whole entry): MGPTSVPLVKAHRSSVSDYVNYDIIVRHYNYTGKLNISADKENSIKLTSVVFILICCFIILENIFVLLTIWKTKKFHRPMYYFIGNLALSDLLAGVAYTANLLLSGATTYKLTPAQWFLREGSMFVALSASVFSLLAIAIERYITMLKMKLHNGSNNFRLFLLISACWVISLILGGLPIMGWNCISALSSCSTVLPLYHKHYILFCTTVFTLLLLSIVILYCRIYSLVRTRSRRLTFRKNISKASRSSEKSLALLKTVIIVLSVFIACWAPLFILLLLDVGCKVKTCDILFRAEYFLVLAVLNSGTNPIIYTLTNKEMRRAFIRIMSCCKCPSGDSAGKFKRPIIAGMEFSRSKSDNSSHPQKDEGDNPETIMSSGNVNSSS

EC50, < 1 µM:
O=C(O)CCC(=O)Nc1ccc(-c2nc(-c3ccc(C4CCCCC4)c(C(F)(F)F)c3)no2)cc1 [Example 21]
NS(=O)(=O)c1ccc(-c2nc(-c3ccc(-c4ccccc4)c(C(F)(F)F)c3)no2)cc1 [Example 13]
O=C(O)CCNS(=O)(=O)c1ccc(-c2nc(-c3ccc(-c4ccccc4)c(C(F)(F)F)c3)no2)cc1 [Example 4, 3-{4-[3-(2-Trifluoromethyl-biphenyl-4-yl)-[1,2,4]oxadiazol-5-yl]-benzene-sulfonylamino}-propionic acid]
